System: Brassica plants comprising mutant AHAS alleles
Assay: Field trial, pre-planting treatment (0, 10, 20, 30 g a.i./ha), two locations in Canada: ERG, EST1, EST2, PPTOX, VIG1, VIG2, VIG3 scores
Assay type: in vivo, Brassica napus
Settings: for establishment (EST2) score, Av / phytotoxicity (PPTOX) score, Av / vigor1 (VIG1) score, Av / vigor2 (VIG2) score, Av: AHAS1 HETO108/AHAS3 HETO104
Source text: Tests were set up and conducted to asses the growth and performance of plants comprising AHAS full knock-out alleles, and to further analyze the correlation between the presence of full knockout and missense AHAS genes in Brassica plants and plant growth and herbicide tolerance of the Brassica plants in the field. To this end, the Brassica plants identified in Example 1 and 2 were backcrossed two times with an elite parent line, and subsequently selfed twice to obtain homozygous plants (BC2S2). Plants were grown as row plots in a split plot design with three replicates (main plots=herbicide treatments, subplots=genotypes) at two locations in Canada. Treatment pre-planting was carried out on the soil about two days before sowing with a dose of 0 (treatment A), 10 (treatment B), 20 (treatment C) or 30 (treatment D) g a.i./ha of thiencarbazone methyl. Herbicide tolerance was measured by scoring for different parameters. The parameter emergence (ERG) was scored at the cotyledon stage on a scale 1-9, where 1 means late emergence and 9 means early emergence. Establishment was scored 14 days after sowing (EST1) and 21 days after sowing (EST2). Scores were from 1 to 9, where 1 is the worst establishment (least plants that emerged), and 9 is the best establishment (most plants emerged). Phytotoxicity (PPTOX) was determined after establishment. Plants were evaluated on a scale of 1 to 9, where 1=completely yellowing, 5=50% of plant is yellow and 9=no yellowing. The vigor scores (see above) were determined at 1-2 leaf stage (VIG1), 7 days after VIG1 (VIG2) and 14 days after VIG1 (VIG3). The average values (Av) and standard deviations (SD) of the scores for the different parameters are represented in Table 7a-g.
Further, the contribution of the knock-out allele to herbicide tolerance conferred by the missense allele was calculated. First, the scores were corrected for a possible effect of the growth per se, independent of herbicide treatment. To this end, the scores for treatments B, C and D were divided by the scores for treatment A for the same genotype and for the same parameter (corrected herbicide tolerance scores). Next, the effect of the knock-out allele to these corrected herbicide tolerance scores obtained by the missense allele was calculated. Therefore, the corrected herbicide tolerance scores for the missense—knock-out allele combination was divided by the corrected herbicide tolerance scores for the missense allele—wild-type combination. In case the knock-out allele has no effect on herbicide tolerance conferred by the missense allele, this ratio should be 1. In case the knock-out allele positively contributes to the herbicide tolerance conferred by the missense allele, this ratio should be higher than 1. The results for the contribution of the knock-out allele to herbicide tolerance conferred by the missense allele as calculated above are shown in table 8.

[1] = AHAS1 HETO108, AHAS3 HETO104, treatment B 10 g a.i./ha pre-planting, Location A
[2] = AHAS1 HETO108, AHAS3 HETO104, treatment B 10 g a.i./ha pre-planting, Location B
[3] = AHAS1 HETO108, AHAS3 HETO104, treatment C 20 g a.i./ha pre-planting, Location A
[4] = AHAS1 HETO108, AHAS3 HETO104, treatment C 20 g a.i./ha pre-planting, Location B
[5] = AHAS1 HETO108, AHAS3 HETO104, treatment D 30 g a.i./ha pre-planting, Location A
[6] = AHAS1 HETO108, AHAS3 HETO104, treatment D 30 g a.i./ha pre-planting, Location B
[7] = AHAS1 HETO108, AHAS3 HETO111, treatment B 10 g a.i./ha pre-planting, Location A
[8] = AHAS1 HETO108, AHAS3 HETO111, treatment B 10 g a.i./ha pre-planting, Location B
[9] = AHAS1 HETO108, AHAS3 HETO111, treatment C 20 g a.i./ha pre-planting, Location A
[10] = AHAS1 HETO108, AHAS3 HETO111, treatment C 20 g a.i./ha pre-planting, Location B
[11] = AHAS1 HETO108, AHAS3 HETO111, treatment D 30 g a.i./ha pre-planting, Location A
[12] = AHAS1 HETO108, AHAS3 HETO111, treatment D 30 g a.i./ha pre-planting, Location B
[13] = AHAS1 HETO108, AHAS3 WT (HETO108+HETO104 series), treatment B 10 g a.i./ha pre-planting, Location A
[14] = AHAS1 HETO108, AHAS3 WT (HETO108+HETO104 series), treatment B 10 g a.i./ha pre-planting, Location B
[15] = AHAS1 HETO108, AHAS3 WT (HETO108+HETO104 series), treatment C 20 g a.i./ha pre-planting, Location A
[16] = AHAS1 HETO108, AHAS3 WT (HETO108+HETO104 series), treatment C 20 g a.i./ha pre-planting, Location B
[17] = AHAS1 HETO108, AHAS3 WT (HETO108+HETO104 series), treatment D 30 g a.i./ha pre-planting, Location A
[18] = AHAS1 HETO108, AHAS3 WT (HETO108+HETO104 series), treatment D 30 g a.i./ha pre-planting, Location B
[19] = AHAS1 HETO108, AHAS3 WT (HETO108+HETO111 series), treatment B 10 g a.i./ha pre-planting, Location A
[20] = AHAS1 HETO108, AHAS3 WT (HETO108+HETO111 series), treatment B 10 g a.i./ha pre-planting, Location B
[21] = AHAS1 HETO108, AHAS3 WT (HETO108+HETO111 series), treatment C 20 g a.i./ha pre-planting, Location A
[22] = AHAS1 HETO108, AHAS3 WT (HETO108+HETO111 series), treatment C 20 g a.i./ha pre-planting, Location B
[23] = AHAS1 HETO108, AHAS3 WT (HETO108+HETO111 series), treatment D 30 g a.i./ha pre-planting, Location A
[24] = AHAS1 HETO108, AHAS3 WT (HETO108+HETO111 series), treatment D 30 g a.i./ha pre-planting, Location B
[25] = 10 g a.i./ha pre-planting (B), Location A
[26] = 10 g a.i./ha pre-planting (B), Location B
[27] = 20 g a.i./ha pre-planting (C), Location A
[28] = 20 g a.i./ha pre-planting (C), Location B

## COC(=O)c1csc(C)c1S(=O)(=O)NC(=O)n1nc(OC)n(C)c1=O [thiencarbazone-methyl, methyl 4-[(4,5-dihydro-3-methoxy-4-methyl-5-oxo-1H-1,2,4-triazol-1-yl)carbonylsulfamoyl]-5-methylthiophene-3-carboxylate]
[1]
  emergence (ERG) score Av: 6.00
  establishment (EST1) score Av, 14 days after sowing: 6.33
[2]
  emergence (ERG) score Av: 4.00
  establishment (EST1) score Av, 14 days after sowing: 5.00
[3]
  emergence (ERG) score Av: 4.00
  establishment (EST1) score Av, 14 days after sowing: 4.00
[4]
  emergence (ERG) score Av: 5.00
  establishment (EST1) score Av, 14 days after sowing: 5.00
[5]
  emergence (ERG) score Av: 5.00
  establishment (EST1) score Av, 14 days after sowing: 5.00
[6]
  emergence (ERG) score Av: 4.67
  establishment (EST1) score Av, 14 days after sowing: 5.33
[7]
  emergence (ERG) score Av: 5.33
  establishment (EST1) score Av, 14 days after sowing: 6.00
[8]
  emergence (ERG) score Av: 4.33
  establishment (EST1) score Av, 14 days after sowing: 6.00
[9]
  emergence (ERG) score Av: 4.67
  establishment (EST1) score Av, 14 days after sowing: 5.33
[10]
  emergence (ERG) score Av: 5.00
  establishment (EST1) score Av, 14 days after sowing: 5.67
[11]
  emergence (ERG) score Av: 5.00
  establishment (EST1) score Av, 14 days after sowing: 5.33
[12]
  emergence (ERG) score Av: 4.33
  establishment (EST1) score Av, 14 days after sowing: 3.67
[13]
  emergence (ERG) score Av: 6.67
  establishment (EST1) score Av, 14 days after sowing: 6.67
[14]
  emergence (ERG) score Av: 4.33
  establishment (EST1) score Av, 14 days after sowing: 4.67
[15]
  emergence (ERG) score Av: 5.00
  establishment (EST1) score Av, 14 days after sowing: 5.00
[16]
  emergence (ERG) score Av: 4.33
  establishment (EST1) score Av, 14 days after sowing: 4.67
[17]
  emergence (ERG) score Av: 4.67
  establishment (EST1) score Av, 14 days after sowing: 4.67
[18]
  emergence (ERG) score Av: 5.00
  establishment (EST1) score Av, 14 days after sowing: 5.33
[19]
  emergence (ERG) score Av: 6.33
  establishment (EST1) score Av, 14 days after sowing: 6.33
[20]
  emergence (ERG) score Av: 4.33
  establishment (EST1) score Av, 14 days after sowing: 5.33
[21]
  emergence (ERG) score Av: 5.33
  establishment (EST1) score Av, 14 days after sowing: 6.00
[22]
  emergence (ERG) score Av: 5.00
  establishment (EST1) score Av, 14 days after sowing: 5.67
[23]
  emergence (ERG) score Av: 5.00
  establishment (EST1) score Av, 14 days after sowing: 5.33
[24]
  emergence (ERG) score Av: 3.33
  establishment (EST1) score Av, 14 days after sowing: 3.67
[25]
  establishment (EST2) score, Av: 6.33
  phytotoxicity (PPTOX) score, Av: 6.00
  vigor1 (VIG1) score, Av: 6.33
  vigor2 (VIG2) score, Av: 7.33
[26]
  establishment (EST2) score, Av: 5.00
  vigor2 (VIG2) score, Av: 5.00
[27]
  establishment (EST2) score, Av: 4.33
  vigor1 (VIG1) score, Av: 5.00
  vigor2 (VIG2) score, Av: 6.00
[28]
  establishment (EST2) score, Av: 5.00
  phytotoxicity (PPTOX) score, Av: 6.00
  vigor1 (VIG1) score, Av: 5.00
